Patent US10294202B2, “Pyrrolidinones as herbicides” (FMC Corporation, priority 2013, dated 2019)

How the values were obtained:
ragweed = test: Test C pre-/postemergence herbicide test; assay type: in vivo, Ambrosia elatior
Method in brief: (§1)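 Response scores range from 0, meaning no effect, to 100, meaning complete control, assigned visually by comparison with controls roughly two weeks (13 to 15 days) after spraying. Applications were made preemergence to seeded loam–sand soil and postemergence to 1- to 4-leaf plants.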

morningglory = test: Test C pre-/postemergence herbicide test; assay type: in vivo, Ipomoea coccinea
Method in brief: as §1

corn = test: Test A pre-/postemergence herbicide test; assay type: in vivo, Zea mays; settings: for Corn plant response rating: Preemergence, visual rating on 0 to 100 scale (0 no effect, 100 complete control)
Method in brief: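 Scoring was visual, relative to untreated controls, on a 0–100 scale after about 10 greenhouse days. Preemergence treatment used a directed soil spray over seeded loam/sand; postemergence treatment targeted one- to two-leaf plants of 2–10 cm.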

oat, wild = test: Test C pre-/postemergence herbicide test; assay type: in vivo, Avena fatua
Method in brief: as §1

lambsquarters = test: Test C pre-/postemergence herbicide test; assay type: in vivo, Chenopodium album
Method in brief: as §1

sedge, umbrella = test: Test B flooded paddy test; assay type: in vivo, Cyperus difformis; settings: 250 g ai/ha, Flood; scale of 0 to 100 where 0 is no effect and 100 is complete control
Method in brief: (§2)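 First, plants reach the 2-leaf stage; next, pots are flooded to 3 cm and compound is delivered into the water; finally, after 13 to 15 greenhouse days at constant depth, injury is graded visually from 0 to 100 against controls.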

johnsongrass = test: Test C pre-/postemergence herbicide test; assay type: in vivo, Sorghum halepense
Method in brief: as §1

soybean = test: Test C pre-/postemergence herbicide test; assay type: in vivo, Glycine max
Method in brief: as §1

rice = test: Test B flooded paddy test; assay type: in vivo, Oryza sativa; settings: 250 g ai/ha, Flood; scale of 0 to 100 where 0 is no effect and 100 is complete control
Method in brief: as §2

[1] = Postemergence, 16 g ai/ha, scale 0 to 100 (0 no effect, 100 complete control)
[2] = Postemergence, 31 g ai/ha, scale 0 (no effect) to 100 (complete control)
[3] = Postemergence, 62 g ai/ha, scale 0 to 100 (0 no effect, 100 complete control)
[4] = Postemergence, 125 g ai/ha, scale 0 to 100 (0 no effect, 100 complete control)
[5] = Preemergence, 62 g ai/ha, scale 0 to 100
[6] = Preemergence, 125 g ai/ha, scale 0 to 100 (0 no effect, 100 complete control)
[7] = Preemergence, 16 g ai/ha, scale 0 to 100
[8] = Postemergence, 125 g ai/ha, 0 to 100 scale, 0 no effect, 100 complete control
[9] = Postemergence, 500 g ai/ha, 0 to 100 scale (0 no effect, 100 complete control)
[10] = preemergence, 500 g ai/ha, 0 to 100 scale
[11] = Postemergence, 250 g ai/ha, scale 0 to 100 (0 no effect, 100 complete control)

O=C1NCC(c2cc(F)c(F)c(F)c2)C1C(=O)Nc1cccc(F)c1F (stereo not shown) [Compound 48]
60: Plant response rating, Sedge, Umbrella (sedge, umbrella)
20: Plant response rating, Corn (corn; [10]) | Plant response rating, Johnsongrass (johnsongrass; [6]) | Plant response rating, Rice (rice)
15: Plant response rating, Morningglory (morningglory; [6]) | Plant response rating, Soybean (soybean; [6])
35: Plant response rating, Ragweed (ragweed; [4])
0: Plant response rating, Ragweed (ragweed; [1]) | Plant response rating, Ragweed (ragweed; [7]) | Plant response rating, Morningglory (morningglory; [5]) | Plant response rating, Morningglory (morningglory; [7]) | Plant response rating, Corn (corn; [8]) | Corn plant response rating (corn; 125 g ai/ha) | Plant response rating, Oat, Wild (oat, wild; [1]) | Plant response rating, Oat, Wild (oat, wild; [2]) | Plant response rating, Oat, Wild (oat, wild; [3]) | Plant response rating, Oat, Wild (oat, wild; [4]) | Plant response rating, Oat, Wild (oat, wild; [5]) | Plant response rating, Oat, Wild (oat, wild; [7]) | Plant response rating, Lambsquarters (lambsquarters; [7]) | Plant response rating, Johnsongrass (johnsongrass; [1]) | Plant response rating, Johnsongrass (johnsongrass; [2]) | Plant response rating, Johnsongrass (johnsongrass; [3]) | Plant response rating, Johnsongrass (johnsongrass; [4]) | Plant response rating, Johnsongrass (johnsongrass; [7])
50: Plant response rating, Corn (corn; [9])
10: Plant response rating, Ragweed (ragweed; [5]) | Plant response rating, Ragweed (ragweed; [6]) | Plant response rating, Morningglory (morningglory; [1]) | Plant response rating, Morningglory (morningglory; [2]) | Plant response rating, Morningglory (morningglory; [3]) | Plant response rating, Morningglory (morningglory; [4]) | Plant response rating, Oat, Wild (oat, wild; [6]) | Plant response rating, Lambsquarters (lambsquarters; [2]) | Plant response rating, Lambsquarters (lambsquarters; [4]) | Plant response rating, Johnsongrass (johnsongrass; [5]) | Plant response rating, Soybean (soybean; [2]) | Plant response rating, Soybean (soybean; [3]) | Plant response rating, Soybean (soybean; [4]) | Plant response rating, Soybean (soybean; [5]) | Plant response rating, Soybean (soybean; [7])
5: Plant response rating, Ragweed (ragweed; [2]) | Plant response rating, Ragweed (ragweed; [3]) | Plant response rating, Soybean (soybean; [1])
65: Plant response rating, Lambsquarters (lambsquarters; [5]) | Plant response rating, Lambsquarters (lambsquarters; [6])

O=C1NCC(c2cc(F)c(F)cc2F)C1C(=O)Nc1cccc(F)c1F (stereo not shown) [Compound 50]
20: Plant response rating, Soybean (soybean; [11])
15: Plant response rating, Lambsquarters (lambsquarters; [11]) | Plant response rating, Soybean (soybean; [3]) | Plant response rating, Soybean (soybean; [4])
10: Plant response rating, Ragweed (ragweed; [11]) | Plant response rating, Morningglory (morningglory; [4]) | Plant response rating, Morningglory (morningglory; [11]) | Plant response rating, Lambsquarters (lambsquarters; [3]) | Plant response rating, Lambsquarters (lambsquarters; [4]) | Plant response rating, Johnsongrass (johnsongrass; [11]) | Plant response rating, Soybean (soybean; [2])
5: Plant response rating, Lambsquarters (lambsquarters; [2])
0: Plant response rating, Ragweed (ragweed; [2]) | Plant response rating, Ragweed (ragweed; [3]) | Plant response rating, Ragweed (ragweed; [4]) | Plant response rating, Morningglory (morningglory; [2]) | Plant response rating, Morningglory (morningglory; [3]) | Plant response rating, Corn (corn; [8]) | Plant response rating, Corn (corn; [9]) | Corn plant response rating (corn; 125 g ai/ha) | Plant response rating, Corn (corn; [10]) | Plant response rating, Oat, Wild (oat, wild; [2]) | Plant response rating, Oat, Wild (oat, wild; [3]) | Plant response rating, Oat, Wild (oat, wild; [4]) | Plant response rating, Oat, Wild (oat, wild; [11]) | Plant response rating, Johnsongrass (johnsongrass; [2]) | Plant response rating, Johnsongrass (johnsongrass; [3]) | Plant response rating, Johnsongrass (johnsongrass; [4]) | Plant response rating, Rice (rice)
55: Plant response rating, Sedge, Umbrella (sedge, umbrella)
